# Measured values reported in article PMC7504466, “In-Vitro and In-Silico Evaluations of Heterocyclic-Containing Diarylpentanoids as Bcl-2 Inhibitors Against LoVo Colorectal Cancer Cells” (Molecules, 2020).
# Columns and labels:
# T84 cells = test: MTT cytotoxicity assay, T84 cells; type: cell-based; details: Homo sapiens, 72 h post-treatment, read-out: IC50 (µM) KRAS T84
# Procedure: (§1) The in-vitro cytotoxic activity of the synthesized compounds on seven human CRC cell lines including KRAS (T84, SW620, LoVo) and BRAF (HT29, NCI-H508, RKO and LS411N) mutated cells were determined by MTT assay as previously described. The IC50 values obtained are summarized in Table 2 in which 5-FU and normal human dermal fibroblasts (NHDF) were used as controls. Meanwhile, a heatmap (Figure 3) was also generated using GraphPad Prism v7.0 (GraphPad Software, La Jolla, CA, USA) to visualize the cytotoxic trends of synthesized compounds graphically.
# (§2) A panel of KRAS (T84, SW620 and LoVo) and BRAF (HT29, NCI-H508, RKO and LS411N) mutated human CRC cell lines were grown in Dulbecco’s modified Eagle’s medium (DMEM) containing 10% fetal bovine serum (FBS) and 1% penicillin/streptomycin at 37 °C under 5% CO2 while NHDF cells were cultured in DMEM with 5% FBS under the same condition. The culture medium was replenished every two days until the cells reached 80–90% confluency for further usage. All cell lines (T84, ATCC®CCL-248™; SW620, ATCC®CCL-227™; LoVo, ATCC®CCL-229™; HT-29, ATCC®HTB-38; NCI-H508, ATCC®CCL-253™; RKO, ATCC®CRL-2577; LS411N, ATCC®CRL-2159; NHDF, ATCC® PCS-201-010™) were purchased from American Type culture Collections (ATCC, Manassas, VA, USA).
# (§3) LoVo cells (1.5–5 × 10^3 cells/well) were seeded into a 96 well plate and incubated at 37 °C and 5% CO2 atmosphere for 24 h. On the following day, the cell media were replaced with 100 µL of test compounds at various concentration. The final concentration of DMSO in the well is 0.1%. After 72 h of incubation, culture medium was removed and 100 µL of MTT (thiazoyl blue tertrazolium bromide) solution (0.5 mg/mL in culture media) was added. The resultant plates were then further incubated at 37 °C for 4 h. Upon completion, the MTT solution was removed and the formazan salts formed were dissolved in 100 µL of DMSO. The absorbance was recorded with a microplate reader at 570 nm. The IC50 values of tested compounds were calculated from three independent experiments.
# RKO cells = test: MTT cytotoxicity assay, RKO cells; type: cell-based; details: Homo sapiens, 72 h post-treatment, read-out: IC50 (µM) BRAF RKO
# Procedure: as §1, §2, §3
# LoVo cells [1] = test: Cell cycle analysis (flow cytometry, propidium iodide); type: cell-based, human; details: 2.5 and 5 µM, 24 h
# Procedure: LoVo cells (1 × 10^5 cells/well) were seeded into a 6-well plate and incubated at 37 °C and 5% CO2 atmosphere overnight. The seeded cells were then treated with different concentrations of tested compounds for 24 h. Upon completion, cells were trypsinized and washed with PBS followed by fixation with 70% ethanol overnight at 4 °C. Then, the fixed cells were centrifuged at 160× g for 5 min and the resultant cell pellet was washed twice with PBS. Subsequently, 20 μL of DNAse-free RNAse A solution (1 mg/mL) was added to the cell-containing PBS and further incubated for 15 min. Upon completion, 10 μL of propidium iodide staining buffer (10 mg/mL) was added and the resulting mixture was further incubated for 20 min at 4 °C in the dark. Lastly, samples were analyzed with a flow-cytometer (ACEA Biosciences, Inc., San Diego, CA, USA) at the PE channel. The values presented are the means ± SD of three independent experiments.
# cleaved caspase-7 = test: Western blot, cleaved caspase-7; type: cell-based, human; details: 5 µM, LoVo cells, after 24 h
# Procedure: (§4) Lovo cells (1.5 × 10^4 cells/cm^2) were seeded in a T75 flask and incubated at 37 °C and 5% CO2 atmosphere overnight. The seeded cells were then treated with selected compounds at 5 µM of 2e for 24 h, 48 h, and 72 h. After treatment, the cells were harvested and lysed with phenylmethanesulfonyl fluoride (PMSF)-containing cell lysis buffer. The lysates were then centrifuged at 13,300× g for 15 min and the supernatant was collected. Protein concentrations of all samples were determined using a BCA assay kit (Thermo Scientific Inc., Waltham, MA, USA). Equal amounts of protein were electrophoresed in 12% and 20% SDS-polyacrylamide gel (SDS-PAGE), and electro-transferred onto a 0.22-μm polyvinyldene difluoride membrane. Each membrane was blocked with 5% (w/v) skim milk at room temperature for 1 h followed by overnight incubation with specific primary antibodies (1:1000) at 4 °C. Subsequently, the respective membrane was washed thrice with TBST (0.05% (v/v) of tween-20) followed by 1 h incubation with secondary antibody (1:10,000). Upon completion, the membrane was washed thrice with 1X Tris-Buffered Saline, 0.1% Tween® 20 Detergent (TBST) and the immune reactive bands were developed using SuperSignal West Dura Extended Duration Substrate (Thermo Scientific Inc., Waltham, MA, USA). […]
# LS411N cells = test: MTT cytotoxicity assay, LS411N cells; type: cell-based; details: Homo sapiens, LS-411N, 72 h post-treatment, read-out: IC50 (µM) BRAF LS411N
# Procedure: as §1, §2, §3
# HT29 cells = test: MTT cytotoxicity assay, HT29 cells; type: cell-based; details: Homo sapiens, HT-29, 72 h post-treatment, read-out: IC50 (µM) BRAF HT29
# Procedure: as §1, §2, §3
# Mcl-1 = test: Western blot, Mcl-1; type: cell-based, human; details: 5 µM, LoVo cells, up to 72 h
# Procedure: as §4
# LoVo cells [2] = test: Morphological inspection; type: cell-based, human; details: 0.625-5 µM, 24 h post-treatment
# Procedure: LoVo cells (5 × 10^4 cells/well) were seeded into a 12 well plate and incubated at 37 °C and 5% CO2 atmosphere for 24 h. Next, the culture media were replaced with 1 mL of test compounds at various concentration and further incubated for 24 h. The final concentration of DMSO in the well is 0.1%. The morphological changes of compound-treated cells were photographed using a fluorescent microscope.
# Bcl-2 = test: Western blot, Bcl-2; type: cell-based, human; details: 5 µM, LoVo cells, as early as 24 h post-treatment
# Procedure: as §4
structure (smiles),measurement,setting,value
"O=C1C(=Cc2ccccc2Br)CSCC1=Cc1ccccc1Br [Compound 2e, 3,5-Bis(2-bromobenzylidene)tetrahydro-4H-thiopyran-4-one]",IC50,T84 cells,1.6 µM
same,IC50,RKO cells,1.2 µM
same,cell cycle effect,LoVo cells [1],induce G2/M-phase cell arrest
same,cleaved caspase-7 level,cleaved caspase-7,increased
same,IC50,LS411N cells,1.3 µM
same,IC50,HT29 cells,2.1 µM
same,Mcl-1 expression,Mcl-1,remained unaffected
same,morphology of treated LoVo cells,LoVo cells [2],shrink from an epithelial-like shape to a round shape
same,Bcl-2 expression,Bcl-2,significantly inhibited
